# Laboratory results published in patent US12441726B2, “Compounds and uses thereof” (Foghorn Therapeutics Inc., priority 2020, dated 2025).
# Key:
# BRM = BRM (Homo sapiens, UniProt P51531); assay: ATPase catalytic activity assay (ADP-Glo), BRM; conditions: 30 nM BRM, 400 μM ATP; for IC50: BRM ATPase: IC50 (uM)
# Experimental: (§1) The ATPase catalytic activity of BRM or BRG-1 was measured by an in vitro biochemical assay using ADP-Glo™ (Promega, V9102). The ADP-Glo™ kinase assay is performed in two steps once the reaction is complete. The first step is to deplete any unconsumed ATP in the reaction. The second step is to convert the reaction product ADP to ATP, which will be utilized by the luciferase to generate luminesce and be detected by a luminescence reader, such as Envision.
# (§2) Then following addition of 5 μL of ADP-Glo™ Reagent provided in the kit, the reaction incubates at room temperature for 40 minutes. Then 10 μL of Kinase Detection Reagent provided in the kit is added to convert ADP to ATP, and the reaction incubates at room temperature for 60 minutes. Finally, luminescence measurement is collected with a plate-reading luminometer, such as Envision.
# BRG-1 = BRG-1 (Homo sapiens, UniProt P51532); assay: ATPase catalytic activity assay (ADP-Glo), BRG-1; conditions: for Emax: 1 h, read-out: BRG1 Max % Inhibition, ADP-Glo, 30 nM BRG-1, 400 μM ATP
# Chain of BRG-1 (P51532 whole entry): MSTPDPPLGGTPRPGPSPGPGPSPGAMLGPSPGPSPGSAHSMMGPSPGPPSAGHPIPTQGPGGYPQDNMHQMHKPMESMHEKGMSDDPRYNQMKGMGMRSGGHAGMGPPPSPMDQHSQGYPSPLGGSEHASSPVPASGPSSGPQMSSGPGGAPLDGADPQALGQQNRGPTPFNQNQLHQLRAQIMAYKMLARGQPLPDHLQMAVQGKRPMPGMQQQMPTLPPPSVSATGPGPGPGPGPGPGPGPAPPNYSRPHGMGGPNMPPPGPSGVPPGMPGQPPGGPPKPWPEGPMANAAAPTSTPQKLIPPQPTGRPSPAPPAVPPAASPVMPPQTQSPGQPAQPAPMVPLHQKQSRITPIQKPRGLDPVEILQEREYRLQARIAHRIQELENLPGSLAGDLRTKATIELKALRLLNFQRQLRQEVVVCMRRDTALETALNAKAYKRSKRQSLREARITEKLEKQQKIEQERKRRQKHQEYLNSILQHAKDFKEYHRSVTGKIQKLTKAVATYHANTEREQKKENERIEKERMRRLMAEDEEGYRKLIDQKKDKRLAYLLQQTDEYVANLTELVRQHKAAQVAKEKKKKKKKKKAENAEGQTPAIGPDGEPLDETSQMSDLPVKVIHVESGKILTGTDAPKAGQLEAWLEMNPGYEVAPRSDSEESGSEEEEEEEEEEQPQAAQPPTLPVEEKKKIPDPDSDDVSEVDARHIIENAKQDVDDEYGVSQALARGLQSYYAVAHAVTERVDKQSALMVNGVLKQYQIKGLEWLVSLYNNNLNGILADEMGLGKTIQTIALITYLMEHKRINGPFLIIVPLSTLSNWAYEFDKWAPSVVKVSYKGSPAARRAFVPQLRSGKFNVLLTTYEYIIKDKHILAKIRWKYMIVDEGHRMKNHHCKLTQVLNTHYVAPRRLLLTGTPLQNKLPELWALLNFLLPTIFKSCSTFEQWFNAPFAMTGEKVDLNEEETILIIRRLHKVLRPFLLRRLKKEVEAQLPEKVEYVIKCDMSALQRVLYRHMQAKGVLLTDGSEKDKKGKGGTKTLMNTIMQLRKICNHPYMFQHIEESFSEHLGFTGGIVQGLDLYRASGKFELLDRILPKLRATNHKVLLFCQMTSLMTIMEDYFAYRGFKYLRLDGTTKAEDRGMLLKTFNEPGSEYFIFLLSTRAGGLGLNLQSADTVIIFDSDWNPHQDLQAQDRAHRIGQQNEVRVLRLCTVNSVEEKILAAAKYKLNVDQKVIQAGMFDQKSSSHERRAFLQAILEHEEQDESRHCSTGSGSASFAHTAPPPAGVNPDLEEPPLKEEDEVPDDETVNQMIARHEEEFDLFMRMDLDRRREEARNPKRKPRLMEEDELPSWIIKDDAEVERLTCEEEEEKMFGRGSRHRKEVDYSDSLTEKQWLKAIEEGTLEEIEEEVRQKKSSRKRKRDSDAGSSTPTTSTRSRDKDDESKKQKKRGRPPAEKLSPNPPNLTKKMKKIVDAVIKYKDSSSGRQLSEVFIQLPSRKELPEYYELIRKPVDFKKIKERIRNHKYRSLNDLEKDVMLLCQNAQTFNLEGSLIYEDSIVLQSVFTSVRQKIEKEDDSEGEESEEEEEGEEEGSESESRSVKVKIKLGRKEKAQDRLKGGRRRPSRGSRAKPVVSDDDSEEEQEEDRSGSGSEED
# Experimental: as §1, §2
# Chain of BRM (P51531 whole entry): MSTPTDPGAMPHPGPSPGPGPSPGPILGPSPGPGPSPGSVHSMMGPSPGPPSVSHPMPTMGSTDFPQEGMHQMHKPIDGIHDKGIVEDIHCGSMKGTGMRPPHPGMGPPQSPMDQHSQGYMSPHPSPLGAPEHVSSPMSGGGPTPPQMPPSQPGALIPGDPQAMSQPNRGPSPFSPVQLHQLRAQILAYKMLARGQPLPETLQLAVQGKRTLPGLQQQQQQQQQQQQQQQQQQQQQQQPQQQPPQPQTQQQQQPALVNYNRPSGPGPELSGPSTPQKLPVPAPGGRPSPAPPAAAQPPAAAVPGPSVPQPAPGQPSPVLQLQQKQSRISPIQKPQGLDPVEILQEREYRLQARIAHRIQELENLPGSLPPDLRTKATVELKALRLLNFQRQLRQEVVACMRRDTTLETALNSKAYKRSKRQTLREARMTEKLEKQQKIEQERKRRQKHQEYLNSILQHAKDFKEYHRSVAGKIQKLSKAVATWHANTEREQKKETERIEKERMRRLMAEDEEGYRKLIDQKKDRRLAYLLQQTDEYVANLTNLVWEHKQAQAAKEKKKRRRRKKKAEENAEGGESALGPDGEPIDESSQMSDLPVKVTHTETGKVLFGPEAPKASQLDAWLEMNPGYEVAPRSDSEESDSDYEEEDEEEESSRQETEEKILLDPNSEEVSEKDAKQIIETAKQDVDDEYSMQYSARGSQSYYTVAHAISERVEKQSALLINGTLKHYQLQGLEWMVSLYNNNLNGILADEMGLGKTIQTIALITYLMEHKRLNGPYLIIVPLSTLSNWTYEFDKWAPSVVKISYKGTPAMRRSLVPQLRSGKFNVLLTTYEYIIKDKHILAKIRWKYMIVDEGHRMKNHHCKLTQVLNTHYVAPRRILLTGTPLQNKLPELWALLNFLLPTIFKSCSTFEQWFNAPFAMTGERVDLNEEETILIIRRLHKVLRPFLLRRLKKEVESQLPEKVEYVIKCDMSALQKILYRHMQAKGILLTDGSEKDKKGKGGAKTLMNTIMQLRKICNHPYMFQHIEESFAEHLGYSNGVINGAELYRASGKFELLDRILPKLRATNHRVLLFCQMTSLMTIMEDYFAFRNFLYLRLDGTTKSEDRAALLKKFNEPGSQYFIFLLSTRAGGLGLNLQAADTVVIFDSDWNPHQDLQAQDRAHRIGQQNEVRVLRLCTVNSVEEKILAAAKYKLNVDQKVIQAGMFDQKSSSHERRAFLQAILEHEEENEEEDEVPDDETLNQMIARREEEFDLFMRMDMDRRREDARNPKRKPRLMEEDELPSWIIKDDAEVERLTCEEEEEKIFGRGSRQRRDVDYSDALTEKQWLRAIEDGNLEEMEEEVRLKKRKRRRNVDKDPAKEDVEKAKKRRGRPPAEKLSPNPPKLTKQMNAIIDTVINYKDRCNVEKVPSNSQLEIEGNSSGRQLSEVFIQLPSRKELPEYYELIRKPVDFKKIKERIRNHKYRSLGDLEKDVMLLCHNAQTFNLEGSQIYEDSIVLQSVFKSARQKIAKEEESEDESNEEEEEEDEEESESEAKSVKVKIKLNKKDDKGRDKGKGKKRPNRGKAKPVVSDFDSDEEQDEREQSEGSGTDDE
SMILES,BRM Max % Inhibition (BRM) [%],IC50 (BRM) [µM],IC50 (BRG-1) [nM],Emax (BRG-1) [%]
C[C@@]1(C#N)COCc2ccc(C(=O)NCc3cc(N4CCC(O)(c5ccccc5)C4)ccn3)cc21 (stereo partly shown) [Compound 54],81,0.1 to 0.5,> 1000,42
C[C@@]1(C#N)COCc2ccc(C(=O)NCc3cc(N4CCC[C@H](c5ccccc5)C4)ccn3)cc21 [Compound 55],82,0.1 to 0.5,> 1000,33
COc1cccc2c1CCN(c1ccnc(CNC(=O)c3ccc4c(c3)[C@](C)(C#N)COC4)c1)C2 [Compound 56],98,< 0.1,100 to 500,92
C[C@@]1(C#N)COCc2ccc(C(=O)NCc3cc(N4CCC5CCCCC5C4)ccn3)cc21 (stereo partly shown) [Compound 57],85,0.1 to 0.5,> 1000,37
COC1(c2ccccc2)CCN(c2ccnc(CNC(=O)c3ccc4c(c3)[C@](C)(C#N)COC4)c2)C1 (stereo partly shown) [Compound 58],92,0.1 to 0.5,500 to 1000,50
C[C@@]1(C#N)COCc2ccc(C(=O)NCc3cc(N4CC(n5ccc6ccccc65)C4)ccn3)cc21 [Compound 59],93,0.1 to 0.5,500 to 1000,56
C[C@@]1(C#N)COCc2ccc(C(=O)NCc3cc(N4CCC(F)(c5ccccc5)C4)ccn3)cc21 (stereo partly shown) [Compound 60],93,0.1 to 0.5,500 to 1000,75
C[C@@]1(C#N)COCc2ccc(C(=O)NCc3cc(OCC4CCOCC4)ccn3)cc21 [Compound 61],85,0.1 to 0.5,> 1000,25
C[C@@]1(C#N)COCc2ccc(C(=O)NCc3cc(C4CCN(c5ccccc5)C4)ccn3)cc21 (stereo partly shown) [Compound 62],90,0.1 to 0.5,> 1000,42
C[C@@]1(C#N)COCc2ccc(C(=O)NCc3cc(N4CCc5ccc(C(F)F)cc5C4)ccn3)cc21 [Compound 63],99,< 0.1,500 to 1000,84
C[C@@]1(C#N)COCc2ccc(C(=O)NCc3cc(OCc4ccc(C#N)cc4)ccn3)cc21 [Compound 64],87,0.1 to 0.5,> 1000,36
C[C@@]1(C#N)COCc2ccc(C(=O)NCc3cc(OCc4cccc(C#N)c4)ccn3)cc21 [Compound 65],90,0.1 to 0.5,> 1000,39
C[C@@]1(C#N)COCc2ccc(C(=O)NCc3nccc(N4CCc5ccccc5C4)c3F)cc21 [Compound 66],99,0.1 to 0.5,500 to 1000,76
C[C@@]1(C#N)COCc2ccc(C(=O)NCc3cc(N4CCc5cc(C(F)F)ccc5C4)ccn3)cc21 [Compound 67],97,0.1 to 0.5,500 to 1000,84
C[C@@]1(C#N)COCc2ccc(C(=O)NCc3nccc(N4Cc5ccccc5C4)c3F)cc21 [Compound 68],98,< 0.1,100 to 500,91
C[C@@]1(C#N)COCc2ccc(C(=O)NCc3cc(C4CCN(c5cccc(C(F)F)n5)C4)ccn3)cc21 (stereo partly shown) [Compound 69],90,0.1 to 0.5,500 to 1000,50

SMILES,BRM Max % Inhibition (BRM) [%],IC50 (BRM) [µM],IC50 (BRG-1) [nM],Emax (BRG-1) [%]
COc1ccc([C@H]2C[C@@H](c3ccnc(CNC(=O)c4ccc5c(c4)[C@](C)(C#N)COC5)c3)C2)cc1 [Compound 70],94,0.1 to 0.5,500 to 1000,55
COc1cccc([C@H]2C[C@@H](c3ccnc(CNC(=O)c4ccc5c(c4)[C@](C)(C#N)COC5)c3)C2)c1 [Compound 71],89,0.1 to 0.5,> 1000,42
COc1ccc([C@H]2C[C@H](c3ccnc(CNC(=O)c4ccc5c(c4)[C@](C)(C#N)COC5)c3)C2)cc1 [Compound 72],94,< 0.1,100 to 500,91
Cn1ccc2c(c1=O)CCN(c1ccnc(CNC(=O)c3ccc4c(c3)[C@](C)(C#N)COC4)c1)C2 [Compound 73],84,0.1 to 0.5,> 1000,44
COc1cccc([C@H]2C[C@H](c3ccnc(CNC(=O)c4ccc5c(c4)[C@](C)(C#N)COC5)c3)C2)c1 [Compound 74],98,< 0.1,100 to 500,87
C[C@@]1(C#N)COCc2ccc(C(=O)NCc3cc(N4CCc5ccccc5C4)cnn3)cc21 [Compound 75],97,0.1 to 0.5,500 to 1000,54
CN(C)c1cccc([C@H]2C[C@H](c3ccnc(CNC(=O)c4ccc5c(c4)[C@](C)(C#N)COC5)c3)C2)n1 [Compound 76],98,0.1 to 0.5,> 1000,91
C[C@@]1(C#N)COCc2ccc(C(=O)NCc3cc([C@H]4C[C@H](c5cccc(C6CC6)n5)C4)ccn3)cc21 [Compound 77],99,0.1 to 0.5,500 to 1000,102
C[C@@]1(C#N)COCc2ccc(C(=O)NCc3cc([C@H]4C[C@@H](c5cccc(C6CC6)n5)C4)ccn3)cc21 [Compound 78],96,< 0.1,500 to 1000,79
C[C@@]1(C#N)COCc2ccc(C(=O)NCc3cc([C@H]4C[C@H](c5cccc(N6CCOCC6)n5)C4)ccn3)cc21 [Compound 79],96,0.1 to 0.5,500 to 1000,74
C[C@@]1(C#N)COCc2ccc(C(=O)NCc3cc([C@H]4C[C@@H](c5cccc(N6CCOCC6)n5)C4)ccn3)cc21 [Compound 80],83,0.1 to 0.5,> 1000,29
C[C@@H]1CN(c2cccc([C@H]3C[C@H](c4ccnc(CNC(=O)c5ccc6c(c5)[C@](C)(C#N)COC6)c4)C3)n2)C[C@H](C)O1 [Compound 81],98,< 0.1,100 to 500,90
C[C@@H]1CN(c2cccc([C@H]3C[C@@H](c4ccnc(CNC(=O)c5ccc6c(c5)[C@](C)(C#N)COC6)c4)C3)n2)C[C@H](C)O1 [Compound 82],88,0.1 to 0.5,> 1000,38
COCCNC(=O)c1cccc(C#Cc2ccnc(CNC(=O)c3ccc4c(c3)[C@](C)(C#N)COC4)c2)c1 [Compound 83],101,< 0.1,< 100,99
CN(C)C(=O)c1cccc(C#Cc2ccnc(CNC(=O)c3ccc4c(c3)[C@](C)(C#N)COC4)c2)c1 [Compound 84],89,0.1 to 0.5,500 to 1000,53
